# Where a SMILES comes first, the peptide text is derived from it.
# Test system: PDK1
# Assay: PDK1 activity towards synthetic peptide substrates T308tide or PDKtide
# Assay type: biochemical, human
# Settings: PDK1 L155 mutants
# Method: FIG. 12. PDK1 is activated and stabilised through its interaction with PIFtide. (A) GST-PDK1 activity was measured in the presence of increasing concentrations of wild type (wt) PIFtide (closed circles) or a mutant D978A PIFtide (open circles) using the synthetic peptide substrate termed T308tide, as described in Material and Methods. The data was fitted to a hyperbola using the Kaleidagraph™ software. The connection needed to obtain 50% activation of PDK1 was […] for wt-PIFtide and 1.1 μM for D978A-PIFtide. The assay shown was performed in triplicate and there was less than 5% difference between each assay. Similar results were obtained in 2 further experiments (B)—The wild type GST-PDK1 (circles) or the L155D mutant of GST-PDK1 (squares) was incubated in the presence (closed symbols) or absence (open symbols) of […] PIFtife and then for 2 min at the indicated temperatures, rapidly brought to 0° C. (see Materials and Methods), and 2 min later assayed at 30° C. for 10 min using T308tide as substrate. The activity of PDK1 obtained by incubation at 30° C. was taken as 100%. The assay shown was performed in duplicate with similar results obtained in two separate experiments.
# FIG. 14. […] (A) His-PDK1 was assayed for activity using as substrate the indicated concentration of either PDKtide (open triangles) or T308tide (open circles). (B) HIS-PDK1 was assayed for activity in the presence if PDKtide (25 μM closed triangles) or T308tide (100 μM closed circles) in the presence of the indicated concentrations of PIFtide. The assay was performed in triplicates with less than 5% difference between the triplicate samples. Similar results were obtained in 3 separate experiments.
# PDK1's ability to phosphorylate Thr308 of PKBα was measured using a mutant of GST-PKBα in which Ser473 was mutated to Asp (GST-473D PKBα) in the presence of phospholipid vesicles containing sn-1-stearoyl-2-arachidonoyl-D-PtdIns (3, 4, 5)P3 [13]. The ability of wild type and mutant PDK1 to phosphorylate the synthetic peptides T308tide or PDKtide was carried out in 20 μl assays containing 50 mM Tris/HCl pH 7.5, 0.1% 2-mercaptoethanol 10 mM MgCl2, 100 μM [γ^32P]ATP (˜500 cpm/pmol) 0.5 μM microcystin-LR.PDK1 and the peptide concentrations indicated under Results. After incubation for 10 min at 30° C. the reaction was stopped by addition of 20 μl of 150 mM phosphoric acid. 35 μl of the resultant mixture was spotted into P81 phosphocellulose paper (2×2 cm) and the papers washed and analysed as described previously for assays of MAP kinase. […] Control assays were carried out in parallel in which either PDK1, or peptide substrate were omitted; these values were always less than 5% of the activity measured in the presence of these reagents. […]
smiles,measurement,value
CC[C@H](C)[C@H](NC(=O)[C@H](Cc1ccc(O)cc1)NC(=O)[C@H](CC(=O)O)NC(=O)[C@H](Cc1ccccc1)NC(=O)[C@H](CC(=O)O)NC(=O)[C@H](CCCNC(=N)N)NC(=O)[C@H](Cc1ccccc1)NC(=O)[C@H](CCSC)NC(=O)[C@H](CCC(=O)O)NC(=O)[C@H](CCC(N)=O)NC(=O)[C@H](CCC(=O)O)NC(=O)[C@H](CCC(=O)O)NC(=O)[C@H](CCC(=O)O)NC(=O)[C@H](CO)NC(=O)[C@H](CC(C)C)NC(=O)[C@@H](NC(=O)[C@H](CCCNC(=N)N)NC(=O)[C@@H]1CCCN1C(=O)[C@H](CCC(=O)O)NC(=O)[C@@H](N)CCCNC(=N)N)[C@@H](C)CC)C(=O)N[C@@H](C)C(=O)N[C@@H](CC(=O)O)C(=O)N[C@@H](Cc1c[nH]c2ccccc12)C(=O)N[C@@H](CS)C(=O)O [PIFtide] (H-REPRILSEEEQEMFRDFDYIADWC-OH; N-terminus and C-terminus assumed),"activation of L155A, L155S, L155D and L155E mutants of PDK1 towards T308tide",did not further activate

# — US20080009025A1, “PROTEIN KINASE REGULATION” (priority 1999, published 2008)
